These results are taken from US20150126448A1 (Genentech, Inc., priority 2003, published 2015).

Experiment [1] relates to BxPC3 cells. Kind of experiment: Inhibition of HGF-dependent cell proliferation in BxPC3 cells. In kind it is cell-based, human. The following applies: 5 μg/ml test protein, 25 ng/ml HGF WT; for inhibition of HGF-dependent cell proliferation activity (% activity II): normalized to 5 μg/ml mutant alone (0%) and 25 ng/ml HGF WT (100%); for inhibition of HGF-dependent cell proliferation activity (% activity I): normalized to no HGF (0%) and 25 ng/ml HGF WT (100%). On the procedure:
BxPC3 (human pancreatic adeocarcinoma; ECACC No. 93120816) were obtained from the European Collection of Cell Cultures (CAMR Centre for Applied Microbiology and Research, Porton Down, Salisbury, Wiltshire (UK) and were used in an HGF-dependent proliferation assay. Cells were grown in RPMI medium containing 10% FCS (Sigma F-6178, St. Louis, Mo.), 10 mM HEPES, 2 mM glutamine, 1× Penicillin-Streptomycin (Invitrogen 15140-122, Carlsbad, Calif.), 100× penicillin 10000 μg/ml-streptomycin 10000 mg/ml), and G418 (Invitrogen 10131-035) at 250 mg/ml. The cells were sequentially washed with PBS, PBS containing 10 mM EDTA, then removed using trypsin. The cells were harvested into serum containing media and the cell density was determined using a hemacytometer. Cells at 50000-75000/ml were seeded at 200 μl per well into a white bottom MT plate (Cultur Plate™ 6005680 Packard/PerkinElmer, Boston, Mass.) using the inside 60 wells only and allowed to grow for 24 h. The media was removed, the cells were washed with PBS and 200 ml of serum-free media containing 0.1% BSA (SF-BSA) was added back to the cells. The cells were grown for an additional 24 h. […] Controls were run in the absence of HGF and/or in the absence of test HGF proteins.
The cells were allowed to grow for 72 h and then assayed using the CellTiter-Glo Luminescent Kit (Promega G7571, Madison, Wis.). The procedure followed is described in Promega Technical Bulletin TB288. The microtiter plate was read on a Tropix TR717 microplate luminometer (Berthold 75323 Bad Wildbad, Germany). The percent of stimulation or inhibition of cell proliferation was normalized to the appropriate controls.

In another experiment the test system is MDA-MB-435 cells. Kind of experiment: MDA-MB-435 cell migration transwell assay. The class given is cell-based. As to the method: (A) Representative purity of HGF mutants. […] Incomplete conversion of the secreted single-chain form by CHO expression in 1% FBS (v/v) is shown in lane 1. […] Molecular weight markers are shown as Mr×10^3. […] Values represent the averages of 4-8 independent experiments±SD.
Breast cancer cells MDA-MB-435 (HTB-129, ATCC, Manassas, Va.) were cultured in recommended serum-supplemented medium. Confluent cells were detached in PBS containing 10 mM EDTA and diluted with serum-free medium to a final concentration of 0.6−0.8×10^5 cells/ml. 0.2 ml of this suspension ([…]) was added in triplicate to the upper chambers of 24-well transwell plates (8 μm pore size) (HTS Multiwell™ Insert System, Falcon, Franklin Lakes, N.J.) pre-coated with 10 μg/ml of rat tail collagen Type I (Upstate, Lake Placid, N.Y.). […] After incubation for 13-14 h, cells on the apical side of the membrane were removed and those that migrated to the basal side were fixed in 4% paraformaldehyde followed by staining with a 0.5% crystal violet solution. After washing and airdrying, cells were solubilized in 10% acetic acid and the A560 was measured on a Molecular Devices microplate reader. […] Photographs of stained cells were taken with a Spot digital camera (Diagnostics Instruments, Inc., Sterling Heights, Mich.) connected to a Leitz microscope (Leica Mikroskope & Systeme GmbH, Wetzlar, Germany). […]

Experiment [2] deals with BxPC3 cells. Kind of experiment: HGF-dependent proliferation assay in BxPC3 cells (stimulation). The class given is cell-based, human. The following applies: n=12. On the procedure: BxPC3 (human pancreatic adeocarcinoma; ECACC No. 93120816) were obtained from the European Collection of Cell Cultures (CAMR Centre for Applied Microbiology and Research, Porton Down, Salisbury, Wiltshire (UK) and were used in an HGF-dependent proliferation assay. Cells were grown in RPMI medium containing 10% FCS (Sigma F-6178, St. Louis, Mo.), 10 mM HEPES, 2 mM glutamine, 1× Penicillin-Streptomycin (Invitrogen 15140-122, Carlsbad, Calif.), 100× penicillin 10000 μg/ml-streptomycin 10000 mg/ml), and G418 (Invitrogen 10131-035) at 250 mg/ml. The cells were sequentially washed with PBS, PBS containing 10 mM EDTA, then removed using trypsin. The cells were harvested into serum containing media and the cell density was determined using a hemacytometer. Cells at 50000-75000/ml were seeded at 200 μl per well into a white bottom MT plate (Cultur Plate™ 6005680 Packard/PerkinElmer, Boston, Mass.) using the inside 60 wells only and allowed to grow for 24 h. The media was removed, the cells were washed with PBS and 200 ml of serum-free media containing 0.1% BSA (SF-BSA) was added back to the cells. The cells were grown for an additional 24 h. […]
The cells were allowed to grow for 72 h and then assayed using the CellTiter-Glo Luminescent Kit (Promega G7571, Madison, Wis.). […] The microtiter plate was read on a Tropix TR717 microplate luminometer (Berthold 75323 Bad Wildbad, Germany). […]

In a further experiment the target is Met-IgG fusion protein (UniProt P08581). As to the kind of experiment: HGF/Met-IgG competition binding ELISA; competitor: 1 nM biotinylated HGF.

With “HGF R695A: full length two-chain HGF with R695A mutation in the β-chain”, in the experiment on BxPC3 cells [1], the “inhibition of HGF-dependent cell proliferation activity (% activity II)” value was 68% and the “inhibition of HGF-dependent cell proliferation activity (% activity I)” value is 79%.
Turning to “HGF β: HGF β-chain residues Val495 to Ser728 with Cys604 to Ser mutation and C-terminal His6 tag”, the “effect in cell migration assay” value in the experiment with MDA-MB-435 cells (concentrations of up to 0.95 μM) is “had no effect”.
Take “HGF: wild type hepatocyte growth factor, disulfide-linked two-chain α/β heterodimer, recombinant from CHO cells”: the “proliferation activity at 25 ng/ml as % of the activity at 100 ng/ml” value in the experiment with BxPC3 cells [2] is recorded as 83.6±13.0%.
The substance K641A [c173] (ligand) gave an IC50mut/IC50WT in the experiment with Met-IgG fusion protein of 1.04.
On to “proHGF: uncleavable single chain form of HGF with amino acid changes R494E and R424A”, for which, in the experiment with MDA-MB-435 cells (1 nM, MDA-MB435 cells, FIG. 2B, 2C), the “stimulation of cell migration” value is recorded as “did not stimulate cell migration”. Moreover, in the experiment with BxPC3 cells [1], the “inhibition of HGF-dependent cell proliferation activity (% activity II)” value was found to be 75% and the “inhibition of HGF-dependent cell proliferation activity (% activity I)” value was found to be 63%.
